Patent US6528514B1, “IgE antibody production inhibitors and autoimmune diseases inhibitors” (Welfide Corporation, priority 1998, dated 2003)

Columns and labels:
human heart chymase = biological target: T1, human heart chymase (Homo sapiens, UniProt P23946); test: human heart chymase inhibitory activity test (amidase inhibitory activity); assay type: biochemical; conditions: 5 nM chymase; substrate succinyl-alanyl-alanyl-prolyl-phenylalanine-p-nitroanilide; pH 7.5
T1 sequence (P23946 22-247): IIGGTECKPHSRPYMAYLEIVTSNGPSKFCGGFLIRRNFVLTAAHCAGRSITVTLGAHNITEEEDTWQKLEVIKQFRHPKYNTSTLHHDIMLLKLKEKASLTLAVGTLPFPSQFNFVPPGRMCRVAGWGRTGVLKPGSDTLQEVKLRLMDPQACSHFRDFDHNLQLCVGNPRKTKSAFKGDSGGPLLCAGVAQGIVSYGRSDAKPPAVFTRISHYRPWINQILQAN

[1] = tested on: anti-type II collagen antibody; test: Assay of anti-type II collagen antibody in serum of HgCl2-administered BN rats; assay type: in vivo, rat; conditions: male BN rats, Compound 1 30 mg/kg orally every day, serum day 12, 14, 16
Experimental: (§1) HgCl2, 1 mg/mL/kg, was administered to male BN rats (8 animals per group) subcutaneously at the back every other day from day 1 to day 10, for a total of 5 times (HgCl2 administration group). Separately, in parallel with the administration of HgCl2 in the same manner as above, Compound 1 was administered orally in a daily dose of 30 mg/kg every day (Compound 1 administration group). In the normal group, PBS was administered. On day 12, day 14 and day 16, the blood was drawn from the tail vein and centrifuged to separate the serum. (2-1) Assay of anti-ssDNA antibody
Type II collagen (Collagen Technology Forum, 64-50823) was diluted to 50 μg/mL with 0.02% NaN3/PBS and an ELISA plate was coated with 50 μL/well at 4° C. overnight. After washing, 50 μL of the test sample diluted 50-fold with 1% BSA/PBS was added to the each well and the plate was incubated at room temperature for 2 hours. As the background, wells not supplied with the test sample were provided. Amount of bound antibody was measured as the change of absorbance at 490 nm to 650 nm with the combination of peroxidase-labeled anti-rat IgE(Fc) monoclonal antibody and o-phenylendiamine (1 mg/mL) and H2O2 (as the control, the OD on day 1 was used). The amount of anti-type II collagen antibody was calculated as the difference (ΔOD) from that of the background.
The ordinate represents the difference in absorbance (ΔOD). […]

male BN rats = test: Arthritis assay in HgCl2-administered BN rats (hindpaw volume, severity score); assay type: in vivo, rat; conditions: HgCl2 s.c. every other day day 1 to day 10, Compound 1 orally every day
Experimental: HgCl2, 1 mg/mL/kg, was administered to male BN rats (8 animals per group) subcutaneously at the back every other day from day 1 to day 10, for a total of 5 times (HgCl2 administration group). Separately, in parallel with the administration of HgCl2, Compound 1 was administered orally in a daily dose of […] every day (Compound 1 administration group). In the normal group, PBS in lieu of HgCl2 was administered. On day 1, day 12, day 14, day 16 and day 18, the right and left hindpaw volumes were measured and the severity of arthritis was scored.
With regard to right and left hindpaw volumes, the left hindpaw and right hindpaw of each rat were respectively immersed in water and the increase in volume of the water was measured to calculate the rate of increase (%).
“LEFT” represents the left hindpaw volume and “RIGHT” represents the right hindpaw volume. The ordinate represents the rate of volume increase (%). The abscissa represents the number of days from the first day of testing to the measurement day. […]
The arthritis severity was scored for each limb according to the following criteria and the total of scores for the four limbs (maximum score=16) and the average of the scores for 8 animals per group were calculated. […]

anti-ssDNA antibody = test: Assay of anti-ssDNA antibody in serum of HgCl2-administered BN rats; assay type: in vivo, rat; conditions: male BN rats, Compound 1 30 mg/kg orally every day, serum day 12, 14, 16
Experimental: as §1
A 96-well plate was coated with 50 μL/well of ε-poly-L-lysine having a molecular weight of 2000˜4000 (Wako Pure Chemical Industries, ECN 6644, 25 μg/mL in PBS) at room temperature for 3 hours. […]
After washing, 50 μL of the test sample diluted 50-fold with 1% BSA/PBS was added to each well, and the plate was incubated at room temperature for 2 hours. […] Amount of bound antibody was measured as the change of absorbance at 490 nm to 650 nm with the combination of peroxidase-labeled anti-rat IgE(Fc) monoclonal antibody and o-phenylendiamine (1mg/mL) and H2O2 (as the control, the OD on day 1 was used). The amount of anti-ssDNA antibody was calculated as the difference (ΔOD) from that of the background.
The ordinate represents the difference in absorbance (ΔOD) . […]

IgE antibody = test: Determination of serum IgE antibody titer in HgCl2-administered BN rats (ELISA); assay type: in vivo, rat; conditions: for inhibition at 30 mg/kg/day: Rattus norvegicus, po, read-out: Inhibition rate; for Serum IgE antibody titer / inhibition of IgE antibody titer increased by HgCl2 (in words): male BN rats; for Serum IgE antibody titer: HgCl2 1 mg/mL/kg s.c., compound 30 mg/kg/day orally for 6 days, serum on day 7, *p < 0.05
Experimental: HgCl2, 1 mg/mL/kg, was administered to male BN rats (8 animals per group) subcutaneously at the back (HgCl2 group). Separately, to male BN rats (8 animals per group) similarly administered with HgCl2, Compounds 1˜4 were administered orally in a daily dose of 30 mg/kg for 6 consecutive days beginning the HgCl2 administration day (Compound 1 administration group, Compound 2 administration group, Compound 3 administration group, and Compound 4 administration group, respectively). Here, Compound 3 is 2-[5-amino-2-(3-methoxyphenyl)-6-oxo-1,6-dihydro-1-pyrimidinyl]-N-[1-[(benzoxazol-2-yl)carbonyl]-2-phenylethyl]acetamide and Compound 4 is 2-[5-amino-2-(3-methoxyphenyl)-6-oxo-1,6-dihydro-1-pyrimidin-yl]-N-[1-[[5-(methoxycarbonyl)benzoxazol-2-yl]carbonyl]-2-phenylethyl]acetamide. On day 7 following HgCl2 administration, the animals were sacrificed with CO2 gas, thoracotomized, and the cardiac blood was collected and centrifuged to recover the serum. The serum samples were stored at −20° C. and the IgE antibody titer was determined by the following procedure.
Anti-rat IgE monoclonal antibody [MCARE-01] [manufactured by Biochemical Industry Co., 01404] was diluted to 5 μg/mL with 0.02% NaN3/PBS and an ELISA plate was coated with 50 μL of the solution at 4° C. overnight. After each well was washed, blocking was performed with 3% skim milk/TBS at room temperature for at least 1 hour. After another washing, 50 μL of the test sample diluted 200-fold with 1% BSA/TBS was added to each well, followed by 2 hours of incubation at room temperature. Each well was washed and 50 μL of ALP-labeled anti-rat κ & λ-chain monoclonal antibody (Sigma, lot 113H4804) diluted 5000-fold with 1% BSA/TBS was added. The plate was incubated at room temperature for 2 hours. Each well was washed again, and 50 μL/well of p-nitrophenyl phosphate (in 0.1 M diethanolamine, 1 mg/mL, pH 9.8) was added as the substrate solution. After color development, the reaction was stopped with an equal amount of 0.5 M NaOH and the OD was measured at the wavelength of 405 nm. As the standard rat IgE, Chemicon's rat IgE was used.

[2] = inhibition of serum IgE antibody titer vs HgCl2 group, 30 mg/kg/day orally for 6 days, day 7

SMILES | Ki (human heart chymase) [nM] | anti-type II collagen antibody titer (ΔOD, FIG. 4) [1] | rate of increase in left and right hindpaw volumes (FIG. 1) (male BN rats; measured up to day 18) | arthritis severity score (FIG. 2) (male BN rats; total of four limbs, maximum 16) | amount of anti-ssDNA antibody (ΔOD, FIG. 3) (anti-ssDNA antibody) | inhibition at 30 mg/kg/day (IgE antibody; [2]) [%] | Serum IgE antibody titer (IgE antibody) | inhibition of IgE antibody titer increased by HgCl2 (in words) (IgE antibody; 30 mg/kg/day orally for 6 days) | Inhibition rate (IgE antibody; [2]) [%]
COC(=O)c1ccc2oc(C(=O)C(Cc3ccccc3)NC(=O)Cn3c(-c4ccc(F)cc4)ncc(N)c3=O)nc2c1 (centres unmarked) [Compound 1, 2-[5-amino-2-(4-fluorophenyl)-6-oxo-1,6-dihydro-1-pyrimidinyl]-N-[1-[[5-(methoxycarbonyl)benzoxazol-2-yl]carbonyl]-2-phenylethyl]acetamide] | 23 | reduced | significantly suppressed | significantly reduced | significantly reduced | 27.8 | 62.24 ± 5.08* | significantly inhibited | –
Nc1cnc(-c2cccc(Cl)c2)n(CC(=O)NC(Cc2ccccc2)C(=O)C(F)(F)C(=O)NCc2ccccc2)c1=O (centres unmarked) [Compound 2, 2-[5-amino-2-(3-chlorophenyl)-1 6-dihydro-6-oxo-1-pyrimidinyl]-N-[1-benzyl-3-[N-(benzyl)carbamoyl]-3,3-difluoro-2-oxopropyl]acetamide] | – | – | – | – | – | – | 67 ± 7.57 µg/mL | tendency to inhibit | 22.3
COc1cccc(-c2ncc(N)c(=O)n2CC(=O)NC(Cc2ccccc2)C(=O)c2nc3ccccc3o2)c1 (centres unmarked) [Compound 3, 2-[5-amino-2-(3-methoxyphenyl)-6-oxo-1,6-dihydro-1-pyrimidinyl]-N-[1-[(benzoxazol-2-yl)carbonyl]-2-phenylethyl]acetamide] | – | – | – | – | – | 24.3 | 65.25 ± 6.71* | significantly inhibited | –
COC(=O)c1ccc2oc(C(=O)C(Cc3ccccc3)NC(=O)Cn3c(-c4cccc(OC)c4)ncc(N)c3=O)nc2c1 (centres unmarked) [Compound 4, 2-[5-amino-2-(3-methoxyphenyl)-6-oxo-1,6-dihydro-1-pyrimidin-yl]-N-[1-[[5-(methoxycarbonyl)benzoxazol-2-yl]carbonyl]-2-phenylethyl]acetamide] | – | – | – | – | – | 23.4 | 66.10 ± 8.46* | significantly inhibited | –
